Data as given in patent US20150175655A1 (priority 2012, published 2015).

Target: T1, NS3 genotype 3a protease (UniProt Q81258)
T1 construct: Purified NS3 protease domain (amino acids 1-181) of the genotype 1b and 3a virus were generated as above; fused on or other part: N-terminal hexahistidine tag and rTEV protease cleavage site (vector p28-N6H-Tev-NS3(181)3)
T1 sequence (Q81258 1033-1663): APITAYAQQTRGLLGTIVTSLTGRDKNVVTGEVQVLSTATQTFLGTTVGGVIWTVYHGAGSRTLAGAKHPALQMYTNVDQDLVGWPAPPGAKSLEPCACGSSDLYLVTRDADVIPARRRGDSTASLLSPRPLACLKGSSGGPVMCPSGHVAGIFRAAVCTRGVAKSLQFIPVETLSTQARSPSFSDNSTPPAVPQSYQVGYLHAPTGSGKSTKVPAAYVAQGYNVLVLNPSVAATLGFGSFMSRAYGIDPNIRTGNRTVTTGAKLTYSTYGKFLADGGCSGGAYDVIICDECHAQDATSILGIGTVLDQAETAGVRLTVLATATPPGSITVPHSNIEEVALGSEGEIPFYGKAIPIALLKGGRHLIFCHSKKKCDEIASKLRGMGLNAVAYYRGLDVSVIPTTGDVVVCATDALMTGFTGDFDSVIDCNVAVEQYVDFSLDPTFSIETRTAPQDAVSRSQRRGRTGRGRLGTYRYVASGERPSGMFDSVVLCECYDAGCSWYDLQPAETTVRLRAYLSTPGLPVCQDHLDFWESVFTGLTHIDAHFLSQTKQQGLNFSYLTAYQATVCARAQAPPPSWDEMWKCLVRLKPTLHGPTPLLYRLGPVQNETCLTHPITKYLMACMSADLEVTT
Test: Ki determination, NS3 protease genotype 3a (fluorogenic depsipeptide substrate)
Type: biochemical, hepatitis C virus
Conditions: 200 pM enzyme, 20 μM NS4A peptide, 2 μM substrate, read-out: Ki 3A
In short: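 Refolded His-tagged NS3 protease domain (aa 1-181, genotype 3a) at 200 pM with 20 μM NS4A peptide was pre-incubated 1 h at RT with inhibitor (100 nM–5 pM, 3-fold), then 2 μM FRET depsipeptide substrate was added in HEPES/40% glycerol/10% DMSO buffer. Steady-state rates over 90-120 min (ex 340/em 490 nm) versus inhibitor concentration gave Ki.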

**Q.** Which Ki does the source give for `CC[C@@H]1[C@@H]2CN(C(=O)[C@H](C(C)(C)C)NC(=O)O[C@@H]3C[C@H]3CC/C=C/C(F)(F)C3Nc4ccc(C#N)cc4N=C3O2)[C@@H]1C(=O)N[C@]1(C(=O)NS(=O)(=O)C2(C)CC2)C[C@H]1C(F)F` (stereo partly drawn) [Example 78, (1aR,5S,8S,9S,10R,19E,22aR)-5-tert-butyl-14-cyano-N-[(1R,2R)-2-(difluoromethyl)-1-{[(1-methylcyclopropyl)sulfonyl]carbamoyl}cyclopropyl]-9-ethyl-18,18-difluoro-3,6-dioxo-1,1a,3,4,5,6,9,10,17,17a,18,21,22,22a-tetradecahydro-8H-7,10-methanocyclopropa[18,19][1,10,3,6]dioxadiazacyclononadecino[11,12-b]quinoxaline-8-carboxamide] here?
**A.** Its Ki is 0.82 nM.

**Q.** Which Ki does the source give for `C[C@@H]1[C@@H]2CN(C(=O)[C@H](C(C)(C)C)NC(=O)O[C@@H]3C[C@H]3CCCCC(F)(F)c3nc4ccc(Cl)cc4nc3O2)[C@@H]1C(=O)N[C@]1(C(=O)NS(=O)(=O)C2(C)CC2)C[C@H]1C(F)F` [Example 88, (1aR,5S,8S,9S,10R,22aR)-5-tert-butyl-14-chloro-N-[(1R,2R)-2-(difluoromethyl)-1-{[(1-methylcyclopropyl)sulfonyl]carbamoyl}cyclopropyl]-18,18-difluoro-9-methyl-3,6-dioxo-1,1a,3,4,5,6,9,10,18,19,20,21,22,22a-tetradecahydro-8H-7,10-methanocyclopropa[18,19][1,10,3,6]dioxadiazacyclononadecino[11,12-b]quinoxaline-8-carboxamide] here?
**A.** Its Ki is 0.29 nM.

**Q.** `CC[C@@H]1[C@@H]2CN(C(=O)[C@H](C(C)(C)C)NC(=O)O[C@]3(C)CCC[C@H]3CCCCCc3nc4ccc(OC)cc4nc3O2)[C@@H]1C(=O)N[C@]1(C(=O)NS(=O)(=O)C2(C)CC2)C[C@H]1CC(F)F` [Example 41, (3aR,7S,10S,11S,12R,24aR)-7-tert-butyl-N-[(1R,2S)-2-(2,2-difluoroethyl)-1-{[(1-methylcyclopropyl)sulfonyl]carbamoyl}cyclopropyl]-11-ethyl-16-methoxy-3a-methyl-5,8-dioxo-1,2,3,3a,5,6,7,8,11,12,20,21,22,23,24,24a-hexadecahydro-10H-9,12-methanocyclopenta[18,19][1,10,3,6]dioxadiazacyclononadecino[11,12-b]quinoxaline-10-carboxamide] was tested. Which Ki did it give?
**A.** The Ki was 0.79 nM.

**Q.** For `COc1ccc2nc3c(nc2c1)O[C@H]1CN(C(=O)[C@H](C(C)(C)C)NC(=O)O[C@@H]2C[C@H]2CCCCC3F)[C@H](C(=O)N[C@]2(C(=O)NS(=O)(=O)C3(C)CC3)C[C@H]2C(F)F)[C@@H]1C` (stereo partly drawn) [Example 47, (1aR,5S,8S,9S,10R,22aR)-5-tert-butyl-N-[(1R,2R)-2-(difluoromethyl)-1-{[(1-methylcyclopropyl)sulfonyl]carbamoyl}cyclopropyl]-18-fluoro-14-methoxy-9-methyl-3,6-dioxo-1,1a,3,4,5,6,9,10,18,19,20,21,22,22a-tetradecahydro-8H-7,10-methanocyclopropa[18,19][1,10,3,6]dioxadiazacyclononadecino[11,12-b]quinoxaline-8-carboxamide], which Ki is on record?
**A.** Its Ki is 0.19 nM.
